pEC50, pKi: −log10 of the molar value. Where “and” joins values, the source holds several entries; their conditions need not be identical. Equal values may be shown once.

The subject of assay [1] is AKT serine-473 phosphorylation in PC-3 cells. The assay is described as follows: In vitro phospho-AKT serine 473 cellular assay. It is filed as cell-based. The settings on record: Homo sapiens; PC-3 cells stimulated with EGF; first nine specific compounds; read-out: EC50 activity level, inhibition of AKT serine-473 phosphorylation. Here is the method:
b. In Vitro Phospho-AKT Serine 473 Cellular Assay
The assay measures a test compound's inhibition of AKT serine-473 phosphorylation in human prostate adenocarcinoma derived PC-3 (ATCC CRL-1435) cells that have been stimulated with epidermal growth factor (EGF).
The PC-3 cell line is maintained in RPMI1640 media supplemented with 10% FBS, 2 mM Glutamine, and 10 mM HEPES pH 7.4 at 37° C. in a 5% CO2 humidified incubator.
Cells are seeded in 384-well plates at 7,000 cells/well in 50 μl growth media. After 24 hours, growth media is removed and replaced with RPMI1640 containing no FBS. Cells are treated with 10 concentrations of test compounds or DMSO alone for controls (final DMSO concentration 0.5%) and incubated at 37° C. for 30 minutes. Cells are then stimulated for 10 minutes with 100 ng/ml EGF (final concentration). One column of controls is not stimulated with EGF to observe the signal ratio between stimulated and non-stimulated cells. After 10 minutes, compounds and stimulation media are removed and replaced with 25 μl lysis buffer containing protease inhibitors and phosphatase inhibitors. This buffer contains detergent to bring about cellular disruption. […] Following the transfer of lysate to the MSD plate, AKT in the lysate is captured on the coated antibody by incubation on a shaker at 4° C. for 16 hours. Following the capture step the plate is washed and then incubated for two hours with an antibody to S473 phosphorylated AKT which is conjugated with a Sulfo-Tag. This tag gives a signal when in proximity to the electrode on the base of the MSD plate. Binding the tagged antibody to the captured protein allow detection on a MSD reader.
EC50 values are calculated using MDL Assay Explorer 3.0.1.8 fitting a sigmoidal curve with a variable slope.

The target in assay [2] is mTOR enzyme (mTOR(1360-2549)+GBL) (Homo sapiens, UniProt P42345). Description: In vitro mTOR kinase assay (TR-FRET). In kind it is biochemical. Particulars: 0.25 nM mTOR+GBL, 8 uM ATP; values tied to compounds by order of Table 1; 'x or y' = two alternative values for separated diastereomers of unassigned stereochemistry; read-out: activity level (Ki) in the mTOR kinase assay. The method, boiled down: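 Compounds were tested in 10-point dose curves from 10 uM top final concentration. The reaction was stopped with 2 nM Tb-anti-p4E-BP1 (T37/T46) antibody plus 10 mM EDTA for 30 minutes, and phospho-4E-BP1 was detected by TR-FRET. Ki apparent was fitted with the Morrison ATP-competitive tight-binding equation.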
mTOR enzyme (mTOR(1360-2549)+GBL), sequence (P42345 1360-2549, species assumed): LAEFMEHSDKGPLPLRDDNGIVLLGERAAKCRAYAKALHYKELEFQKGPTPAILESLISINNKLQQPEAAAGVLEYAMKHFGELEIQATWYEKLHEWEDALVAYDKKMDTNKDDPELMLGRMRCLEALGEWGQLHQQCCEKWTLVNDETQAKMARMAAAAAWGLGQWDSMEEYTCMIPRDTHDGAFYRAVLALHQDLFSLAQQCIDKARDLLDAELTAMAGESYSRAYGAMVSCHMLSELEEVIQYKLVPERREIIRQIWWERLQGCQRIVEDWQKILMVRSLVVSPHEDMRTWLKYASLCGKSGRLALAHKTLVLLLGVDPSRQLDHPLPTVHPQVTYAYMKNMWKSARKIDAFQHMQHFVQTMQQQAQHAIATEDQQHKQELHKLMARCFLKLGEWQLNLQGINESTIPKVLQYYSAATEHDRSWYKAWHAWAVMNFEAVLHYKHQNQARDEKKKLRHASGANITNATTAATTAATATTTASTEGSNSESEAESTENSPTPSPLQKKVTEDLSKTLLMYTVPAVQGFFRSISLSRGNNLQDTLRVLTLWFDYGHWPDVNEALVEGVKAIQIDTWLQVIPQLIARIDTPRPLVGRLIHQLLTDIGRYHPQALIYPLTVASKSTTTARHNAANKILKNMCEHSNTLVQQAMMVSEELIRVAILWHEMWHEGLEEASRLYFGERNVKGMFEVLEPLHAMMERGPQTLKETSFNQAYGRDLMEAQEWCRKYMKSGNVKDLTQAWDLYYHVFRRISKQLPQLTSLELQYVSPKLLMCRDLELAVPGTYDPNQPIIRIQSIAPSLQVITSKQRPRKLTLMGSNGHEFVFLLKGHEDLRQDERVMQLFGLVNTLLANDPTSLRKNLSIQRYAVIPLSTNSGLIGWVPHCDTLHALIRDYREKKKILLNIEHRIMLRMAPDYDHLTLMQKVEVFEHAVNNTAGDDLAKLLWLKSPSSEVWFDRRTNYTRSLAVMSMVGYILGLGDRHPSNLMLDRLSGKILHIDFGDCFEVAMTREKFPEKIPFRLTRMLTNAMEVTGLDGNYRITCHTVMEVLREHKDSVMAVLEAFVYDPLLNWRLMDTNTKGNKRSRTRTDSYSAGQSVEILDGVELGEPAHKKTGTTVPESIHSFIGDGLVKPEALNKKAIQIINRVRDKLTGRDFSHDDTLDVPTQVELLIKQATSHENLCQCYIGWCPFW
mTOR enzyme (mTOR(1360-2549)+GBL), sequence (Q9BVC4 whole entry partner, species assumed): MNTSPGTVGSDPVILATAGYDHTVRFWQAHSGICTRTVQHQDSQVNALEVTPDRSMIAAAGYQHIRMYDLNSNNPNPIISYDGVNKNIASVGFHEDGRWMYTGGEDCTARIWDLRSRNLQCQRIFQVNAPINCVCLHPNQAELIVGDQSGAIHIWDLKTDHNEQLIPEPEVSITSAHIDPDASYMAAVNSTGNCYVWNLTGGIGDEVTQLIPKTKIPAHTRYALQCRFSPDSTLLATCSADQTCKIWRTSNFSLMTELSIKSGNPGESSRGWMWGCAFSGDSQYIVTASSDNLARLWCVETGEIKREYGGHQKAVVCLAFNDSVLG

The subject of another assay is PC3 cells. The assay is described as follows: In vitro cell proliferation assay. It is filed as cell-based, human. The settings on record: Homo sapiens, PC-3, with PC3 cells; values tied to compounds by order of Table 1. In short, it runs like this: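 PC3 (or MDAMB361.1) cells, ~10^3/well, settled overnight, then exposed to compound for 3 days; viability read by CellTiter-Glo luminescence (RLU). Alternatively, 4-day compound exposure followed by Alamar Blue for 6 h, fluorescence 544/590 nm; EC50 from sigmoidal dose-response fit.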

As a reminder, the pEC50 is the negative decadic logarithm of the EC50, by convention in mol/L. As to `CCNC(=O)Nc1ccc(-c2nc3c(c(N4CCOCC4)n2)COCC3)cc1` [Example 18, 1-ethyl-3-(4-(4-morpholino-7,8-dihydro-5H-pyrano[4,3-d]pyrimidin-2-yl)phenyl)urea], the pEC50 in assay [1] is 6.63.

The term pKi denotes the Ki on a negative log10 scale, so that one unit is a factor of ten. As to `CCNC(=O)Nc1ccc(-c2nc(N3CCOC[C@@H]3C)c3c(n2)[C@](C)(CCN2CCC2)OC3)cc1` [Example 79 er (S), 1-(4-((S)-7-(2-(azetidin-1-yl)ethyl)-7-methyl-4-((S)-3-methylmorpholino)-5,7-dihydrofuro[3,4-d]pyrimidin-2-yl)phenyl)-3-ethylurea], the pKi in assay [2] was 7.51. Also, in the assay on PC3 cells, the pEC50 is 6.11. As for `CCNC(=O)Nc1ccc(-c2nc(N3CCOC[C@@H]3C)c3c(n2)[C@@](C)(CCn2ccnc2C)OC3)cc1` [Example 81 et (R), 1-ethyl-3-(4-((R)-7-methyl-7-(2-(2-methyl-1H-imidazol-1-yl)ethyl)-4-((S)-3-methylmorpholino)-5,7-dihydrofuro[3,4-d]pyrimidin-2-yl)phenyl)urea], in assay [2], the pKi was 7.17. In addition, in the assay with PC3 cells, the negative-log EC50 (pEC50) was 6.56.

Regarding `CCCC1(C)OCc2c(N3CCOC[C@@H]3C)nc(-c3ccc(NC(=O)NCC)cc3)nc21` (stereo partly drawn) [Example 83, 1-ethyl-3-(4-(7-methyl-4-((S)-3-methylmorpholino)-7-propyl-5,7-dihydrofuro[3,4-d]pyrimidin-2-yl)phenyl)urea], in assay [2], the negative-log Ki (pKi) is 8.70. Also, the pEC50 in the assay on PC3 cells is 7.08. For the compound `C=CC[C@@]1(C)OCc2c(N3CCOC[C@@H]3C)nc(-c3ccc(NC(=O)NCC)cc3)nc21` [Example 85 ek^2], the pKi in assay [2] is 8.70. Moreover, the pEC50 with PC3 cells was 7.18. Consider `CCNC(=O)Nc1ccc(-c2nc3c(c(N4CCOC[C@@H]4C)n2)COC3)cc1` [Example 96, (S)-1-ethyl-3-(4-(4-(3-methylmorpholino)-5,7-dihydrofuro[3,4-d]pyrimidin-2-yl)phenyl)urea], for which, in assay [2], the negative-log Ki (pKi) is 8.05. Besides, in the assay with PC3 cells, the negative logarithm of the EC50 (pEC50) was 7.55. On to `CCNC(=O)Nc1ccc(-c2nc3c(c(N4[C@@H]5CC[C@H]4COC5)n2)COC3)cc1` [Example 98, 1-(4-(4-((1R,5S)-3-oxa-8-azabicyclo[3.2.1]octan-8-yl)-5,7-dihydrofuro[3,4-d]pyrimidin-2-yl)phenyl)-3-ethylurea], for which the pKi in assay [2] was 8.10. This compound gave a pEC50 with PC3 cells of 6.48. On the same counts, the results for `CC1(C)OCc2c(N3CCOCC3)nc(-c3ccc(N)nc3)nc21` [Example 102, 5-(7,7-dimethyl-4-morpholino-5,7-dihydrofuro[3,4-d]pyrimidin-2-yl)pyridin-2-amine] are 7.77 and 6.80. On to `C[C@H]1COCCN1c1nc(-c2cnc(N)nc2)nc2c1COC2(C)C` [Example 103, (S)-5-(7,7-dimethyl-4-(3-methylmorpholino)-5,7-dihydrofuro[3,4-d]pyrimidin-2-yl)pyrimidin-2-amine], for which the pKi in assay [2] is 7.82. Further, the negative logarithm of the EC50 (pEC50) with PC3 cells was 7.39.

On to `C[C@H]1COCCN1c1nc(-c2cnc(N)nc2)nc2c1CO[C@@]2(C)CCOc1ccccc1` [Example 104 gs (S), 5-((S)-7-methyl-4-((S)-3-methylmorpholino)-7-(2-phenoxyethyl)-5,7-dihydrofuro[3,4-d]pyrimidin-2-yl)pyrimidin-2-amine], for which the negative-log Ki (pKi) in assay [2] is 6.64. In addition, the pEC50 with PC3 cells is 6.84. The corresponding values for `CC1(C)OCc2c(N3C[C@H]4C[C@@H]3CO4)nc(-c3cnc(N)nc3)nc21` [Example 105, 5-(4-((1R,4R)-2-oxa-5-azabicyclo[2.2.1]heptan-5-yl)-7,7-dimethyl-5,7-dihydrofuro[3,4-d]pyrimidin-2-yl)pyrimidin-2-amine] are 7.06 and 7.77. The corresponding values for `CC1(C)OCc2c(N3C[C@H]4CC[C@@H](C3)O4)nc(-c3cnc(N)nc3)nc21` [Example 107, 5-(4-((1R,5S)-8-oxa-3-azabicyclo[3.2.1]octan-3-yl)-7,7-dimethyl-5,7-dihydrofuro[3,4-d]pyrimidin-2-yl)pyrimidin-2-amine] are 8.00 and 6.64.

With `COCC[C@]1(C)OCc2c(N3CCOC[C@@H]3C)nc(-c3ccc4nc(N)oc4c3)nc21` [Example 112 hg^1], the pKi in assay [2] was 6.59 and 6.39. The same compound showed a pEC50 with PC3 cells of 6.17. Turning to `CC1(C)OCc2c(N3CCOCC3)nc(-c3ccc4oc(N)nc4c3)nc21` [Example 114, 5-(7,7-dimethyl-4-morpholino-5,7-dihydrofuro[3,4-d]pyrimidin-2-yl)benzo[d]oxazol-2-amine], the pKi in assay [2] was 6.91. In the assay on PC3 cells, the negative logarithm of the EC50 (pEC50) is 5.60. In the case of `CC1(C)OCc2c(N3CCOCC3)nc(-c3ccc4nc(N)oc4c3)nc21` [Example 115, 6-(7,7-dimethyl-4-morpholino-5,7-dihydrofuro[3,4-d]pyrimidin-2-yl)benzo[d]oxazol-2-amine], the negative logarithm of the Ki (pKi) in assay [2] was 6.57. In the assay on PC3 cells, this compound showed a negative-log EC50 (pEC50) of 6.84.

`CC1(C)OCc2c(N3CCOCC3)nc(-c3ccc4c(N)noc4c3)nc21` [Example 116, 6-(7,7-dimethyl-4-morpholino-5,7-dihydrofuro[3,4-d]pyrimidin-2-yl)benzo[d]isoxazol-3-amine]: in assay [2], the pKi is 7.77. The negative-log EC50 (pEC50) in the assay with PC3 cells is 5.68. `CC1(C)OCc2c(N3CCOCC3)nc(-c3ccc4onc(N)c4c3)nc21` [Example 117, 5-(7,7-dimethyl-4-morpholino-5,7-dihydrofuro[3,4-d]pyrimidin-2-yl)benzo[d]isoxazol-3-amine]: the negative-log Ki (pKi) in assay [2] is 6.25. For the same compound, the pEC50 in the assay with PC3 cells was 5.92.

In the case of `COCC[C@]1(C)OCc2c(N3CCOC[C@@H]3C)nc(-c3ccc4onc(N)c4c3)nc21` [Example 119 hq^1], the negative-log Ki (pKi) in assay [2] was 5.37 and 5.82. This compound gave a pEC50 in the assay with PC3 cells of 6.69. As for `C[C@H]1COCCN1c1nc(-c2ccc3c(N)noc3c2)nc2c1COC2(C)C` [Example 120, (S)-6-(7,7-dimethyl-4-(3-methylmorpholino)-5,7-dihydrofuro[3,4-d]pyrimidin-2-yl)benzo[d]isoxazol-3-amine], the negative logarithm of the Ki (pKi) in assay [2] was 7.62. In the assay with PC3 cells, this compound had a pEC50 of 7.41.

With `C[C@H]1COCCN1c1nc(-c2ccc3onc(N)c3c2)nc2c1COC2(C)C` [Example 121, (S)-5-(7,7-dimethyl-4-(3-methylmorpholino)-5,7-dihydrofuro[3,4-d]pyrimidin-2-yl)benzo[d]isoxazol-3-amine], in assay [2], the negative-log Ki (pKi) was 6.41. This compound also had a pEC50 in the assay with PC3 cells of 5.89. As to `C[C@H]1COCCN1c1nc(-c2ccc3oc(N)nc3c2)nc2c1COC2(C)C` [Example 123, (S)-5-(7,7-dimethyl-4-(3-methylmorpholino)-5,7-dihydrofuro[3,4-d]pyrimidin-2-yl)benzo[d]oxazol-2-amine], the negative logarithm of the Ki (pKi) in assay [2] is 7.37. This compound gave a negative-log EC50 (pEC50) in the assay with PC3 cells of 6.52. `COCC[C@]1(C)OCc2c(N3CCOC[C@@H]3C)nc(-c3ccc4nc(N)[nH]c4c3)nc21` [Example 124 hv^1]: the negative logarithm of the Ki (pKi) in assay [2] is 7.62 and 7.09. In addition, in the assay with PC3 cells, the pEC50 was 6.24.

Consider `CNc1nc2cc(-c3nc(N4CCOC[C@@H]4C)c4c(n3)C(C)(C)OC4)ccc2[nH]1` [Example 125, (S)-5-(7,7-dimethyl-4-(3-methylmorpholino)-5,7-dihydrofuro[3,4-d]pyrimidin-2-yl)-N-methyl-1H-benzo[d]imidazol-2-amine], for which, in assay [2], the pKi was 8.00. The same compound gave a pEC50 in the assay with PC3 cells of 6.25. Regarding `CC[C@H]1COCCN1c1nc(-c2cnc(N)nc2)nc2c1CCCO2` [Example 128, (S)-5-(4-(3-ethylmorpholino)-6,7-dihydro-5H-pyrano[2,3-d]pyrimidin-2-yl)pyrimidin-2-amine], the pKi in assay [2] was 6.99. In addition, the negative-log EC50 (pEC50) in the assay with PC3 cells was 5.92. The corresponding values for `Nc1ccc(-c2nc3c(c(N4C[C@H]5CC[C@@H](C4)O5)n2)CCCO3)cn1` [Example 130, 5-(4-((1R,5S)-8-oxa-3-azabicyclo[3.2.1]octan-3-yl)-6,7-dihydro-5H-pyrano[2,3-d]pyrimidin-2-yl)pyridin-2-amine] are 7.52 and 6.13. On the same counts, the results for `Nc1ccc(-c2nc3c(c(N4[C@@H]5CC[C@H]4COC5)n2)CCCO3)cn1` [Example 132, 5-(4-((1R,5S)-3-oxa-8-azabicyclo[3.2.1]octan-8-yl)-6,7-dihydro-5H-pyrano[2,3-d]pyrimidin-2-yl)pyridin-2-amine] are 7.49 and 6.23.

These data come from patent US20100331305A1, “OXO-HETEROCYCLE FUSED PYRIMIDINE COMPOUNDS, COMPOSITIONS AND METHODS OF USE” (Genentech, Inc., priority 2009, published 2010).
